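Method: 48-hour compound exposure of cells in 96-well plates, five concentrations, linear interpolation of endpoints. Here, GI50 denotes the concentration required for 50% inhibition of growth. TGI: total growth inhibition.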
Key:
Test in all cases: NCI tumour cell line growth inhibition, 48 h
[1] = tested on: COLO 205 colon
[2] = tested on: U251 CNS
[3] = tested on: SK-MEL-2 melanoma
[4] = tested on: HL-60(TB) leukemia
[5] = tested on: OVCAR-5 ovarian
[6] = tested on: A549 NSCLC
[7] = tested on: NCI-H460 lung
[8] = tested on: SR leukemia
[9] = tested on: ACHN renal
[10] = tested on: MDA-N

Row | Structure (SMILES) | TGI [1] [µM] | TGI [2] [µM] | TGI [3] [µM] | TGI [4] [µM] | TGI [5] [µM] | TGI [6] [µM] | TGI [7] [µM] | TGI [8] [µM] | TGI [9] [µM] | GI50 [1] [µM] | GI50 [4] [µM] | GI50 [5] [µM] | GI50 [7] [µM] | GI50 [9] [µM] | TGI [10] [µM] | GI50 [2] [µM] | GI50 [3] [µM] | GI50 [6] [µM] | GI50 [8] [µM]
1 | C[C@@H]1CC[C@]2(C(=O)O)CC[C@]3(C)C(=CC[C@@H]4[C@@]5(C)CC[C@H](O)C(C)(C)[C@@H]5CC[C@]43C)[C@@H]2[C@]1(C)O | 30 | 27.3 | 31.8 | 19.8 | 31.5 | 33.3 | 17.3 | 30 | 30.4 | – | – | – | – | – | – | – | – | – | –
2 | O=C1c2ccccc2-c2c1c1ccccc1c(=O)n2CCNCCNCCNCCn1c2c(c3ccccc3c1=O)C(=O)c1ccccc1-2 | > 20.3 | – | – | – | – | – | > 100 | – | 0.555 | 1.76 | 1.8 | 0.449 | 0.0707 | 0.0536 | – | – | – | – | –
3 | Nc1nc(SCCc2ccccc2)c2[nH]cnc2n1 | – | > 100 | 82.9 | – | > 100 | > 100 | > 100 | > 100 | > 100 | – | – | – | – | – | > 100 | – | – | – | –
4 | S=C1Nc2ccccc2SC1c1ccccc1 (stereo not drawn) | > 100 | > 100 | – | > 100 | > 100 | > 100 | > 100 | > 100 | > 100 | – | – | – | – | – | > 100 | – | – | – | –
5 | Cc1ccc(N=NC(=Nc2ccccc2)c2ccc(N(CCC#N)CCC#N)cc2)cc1 | > 100 | 71.2 | 48 | – | > 100 | 80.7 | 45.5 | > 100 | > 100 | – | – | – | – | – | > 100 | – | – | – | –
6 | Cc1n[nH]c(=O)n1/N=C/c1ccc(Cl)cc1 | > 100 | – | – | – | > 100 | > 100 | > 100 | > 100 | > 100 | – | – | – | – | – | > 100 | – | – | – | –
7 | COC(=O)c1c(C)cccc1C1CN=NC12Cc1ccc(C)cc1C2=O (stereo not drawn) | – | > 100 | – | 47.1 | > 100 | > 100 | 28.2 | > 100 | > 100 | – | – | – | – | – | > 100 | – | – | – | –
8 | C1CN(c2nc3c(nnc4nc(N5CCOCC5)sc43)s2)CCO1 | > 100 | > 100 | > 100 | > 100 | > 100 | > 100 | – | – | > 100 | – | – | – | – | – | > 100 | – | – | – | –
9 | Cc1ccc(-c2n[nH]c(=O)n2N2C(=O)c3ccccc3C2=O)cc1 | – | > 100 | > 100 | > 100 | > 100 | > 100 | > 100 | > 100 | > 100 | – | – | – | – | – | > 100 | – | – | – | –
10 | CCOC(=O)C1(C/C=C/CBr)Cc2ccccc2C1=O (stereo not drawn) | 11.7 | 14.8 | 6.13 | > 100 | 20.1 | > 35.7 | 4.21 | – | 7.19 | – | – | – | – | – | 6.37 | – | – | – | –
11 | c1csc(-c2ccc(-c3cccc4nsnc34)s2)c1 | > 100 | > 100 | > 100 | – | > 100 | > 100 | > 100 | 52.2 | > 100 | – | – | – | – | – | > 100 | – | – | – | –
12 | CC1CCC(n2c3cnccc3c3cnc(Nc4ccc5c(n4)CCN(C(=O)CO)C5)nc32)CC1 (stereo not drawn) | – | > 100 | > 100 | – | – | > 100 | > 100 | > 100 | > 100 | – | – | – | 0.422 | 0.469 | – | 0.478 | > 100 | 0.882 | 0.239
13 | C=CC1(C)CCC2C(=CCC3C2(C)CC(O)C(O)C3(C)COC2OC(C(=O)O)C(O)C(O)C2O)C1 (stereo not drawn) (tested in a mixture with another compound) | > 100 | > 100 | > 100 | – | > 100 | > 100 | > 100 | > 100 | > 100 | – | – | – | – | – | > 100 | – | – | – | –
14 | C[C@@H](NC(=O)[C@@H]1C[C@]1(C)COC(=O)c1cc([N+](=O)[O-])cc([N+](=O)[O-])c1)c1cccc2ccccc12 | > 100 | > 100 | > 100 | – | > 100 | > 100 | > 100 | > 100 | > 100 | – | – | – | – | – | > 100 | – | – | – | –
15 | C#CCNC(CS)C(=O)O (stereo not drawn) | > 100 | > 100 | > 100 | > 100 | > 100 | > 100 | > 100 | > 100 | > 100 | – | – | – | – | – | – | – | – | – | –
16 | Cc1ccc(Cl)c2[nH]c(-c3ccccc3)cc(=O)c12 | > 100 | > 100 | > 100 | > 100 | > 100 | 72 | > 100 | – | 98.4 | – | – | – | – | – | > 100 | – | – | – | –
17 | COCO[C@@H]1C[C@H]2C(=O)Nc3ccccc3C(=O)N2C1 | > 100 | > 100 | > 100 | – | > 100 | > 100 | – | – | > 100 | – | – | – | – | – | > 100 | – | – | – | –
18 | CCOC(=O)c1cn2c(n1)sc1cccc(C)c12 | > 100 | – | – | – | > 100 | > 100 | > 100 | – | > 100 | – | – | – | – | – | > 100 | – | – | – | –
19 | C=C1C(=O)O[C@@H]2C(=O)[C@@H](C)CCC/C(C)=C/CC[C@@]3(C)O[C@@H]3C[C@@H]12 | 47.9 | > 100 | > 100 | 33.4 | > 100 | > 100 | – | – | > 100 | – | – | – | – | – | > 100 | – | – | – | –
20 | CC(=O)O[C@@H]1[C@H](C(C)C)[C@@H](OC(C)=O)C/C(C)=C/CC[C@]2(C)O[C@@H]12 | > 100 | > 100 | > 100 | > 100 | > 100 | > 100 | > 100 | – | > 100 | – | – | – | – | – | > 100 | – | – | – | –
21 | [N-]=[N+]=NC[C@H]1OCO[C@H](CN=[N+]=[N-])[C@@H](OCCOCCCl)[C@@H]1OCCOCCCl | > 100 | > 100 | > 100 | > 100 | – | > 100 | > 100 | > 100 | – | – | – | – | – | – | > 100 | – | – | – | –
22 | Nn1c(-c2ccccc2)nn(C(=O)c2ccccc2)c1=O | > 100 | > 100 | – | > 100 | > 100 | > 100 | > 100 | > 100 | > 100 | – | – | – | – | – | > 100 | – | – | – | –
23 | COc1cc2nc3n(c(=O)c2cc1OC)-c1ccc([N+](=O)[O-])cc1C3=O | > 100 | > 100 | > 100 | – | > 100 | > 100 | > 100 | – | > 100 | – | – | – | – | – | > 100 | – | – | – | –
24 | O=C1CCCc2cc3c(cc21)CC1(Cc2ccccc2C1)C3 | 5.11 | 64 | > 100 | 5.02 | > 100 | 43.3 | – | – | 32.9 | – | – | – | – | – | – | – | – | – | –

— PubChem BioAssay (NCI)
